Experimental data taken from a melting point compilation (Tetko et al.; mined from patent text by program, amines drawn as free bases though some values may be those of a salt).

Row | melting point | SMILES
1 | 120 to 125 °C | O=C(C#Cc1ccc(C(F)(F)F)cc1Cl)Nc1ccc(OCCn2cccn2)cc1
2 | 171 to 172 °C | CC1(C)Nc2ncc(-c3ccc(C(=O)N4CCC[C@H]4CN4CCCC4)cc3)cc2N(Cc2cc(F)ccc2F)C1=O
3 | 220 to 222 °C | CC1(C)CC(NC(=O)c2cc([N+](=O)[O-])cc([N+](=O)[O-])c2)CC(C)(C)N1
4 | 134 to 139 °C | Oc1ccc(F)cc1Cc1ccc(F)cc1
5 | 284 to 285 °C | COc1cc2c(N)nc(N3CCN(c4nc5cccccc-5n4)CC3)nc2c(OC)c1OC
6 | 129 to 130 °C | Cc1c([N+](=O)[O-])ccc2[nH]cc(CCCO)c12
7 | 148 to 150 °C | CCNC(=O)[C@H](C)C[C@H](O)[C@H](CC1CCCCC1)NC(=O)[C@H](Cc1cscn1)NC(=O)[C@@H](CC(=O)N(C)Cc1ccccc1)Cc1ccccc1
8 | 220 °C | NS(=O)(=O)c1cccc(-c2cn(-c3nc(-c4ccc(C(F)(F)F)nc4)cc(C(F)F)n3)cn2)c1
9 | 159 to 162 °C | Cc1ccc(C2c3c(C)c(N4CCN(c5ccc(F)cc5)CC4)c(C)c(C)c3OC2(C)C)cc1 (stereo unspecified)
10 | 81 to 83 °C | CCOC(=O)C1=C(COCc2ccc(CN(C)C)s2)NC(C)=C(C(=O)OC)C1c1ccccc1Cl (stereo unspecified)
11 | 259 to 262 °C | CC(C)(C)c1ccc2c(c1)C(=O)c1ccc(C(=O)O)cc1S2(=O)=O
12 | 105 to 107 °C | Nc1cccc(Oc2cccc(Oc3cccc(N)c3)c2)c1
13 | > 250 °C | Nc1scc2c(-c3n[nH]c(=O)o3)nn(-c3ccccc3)c(=O)c12
14 | 131 to 133 °C | O=C(Nc1cccc(C(=O)O)c1)Oc1ccccc1
15 | 96 °C | O=C(CC(=O)C(F)(F)F)c1ccc(-n2cccn2)cc1
16 | 68 to 69 °C | COc1ccc2oc(C(=O)NCc3ccccc3)c(OC(C)C)c2c1
17 | 113 °C | CCC1CC(=O)N(Cc2cccc(NS(C)(=O)=O)c2)N=C1c1ccc(OC)c(OC2CCCC2)c1 (stereo unspecified)
18 | 124 °C | N#Cc1cccc2c1CC(Br)C2=O (stereo unspecified)
19 | 90 to 92 °C | COc1ccc([C@H]2SC(c3ccccc3)=C(C)N(CCN(C)C)C(=O)[C@H]2OC(C)=O)cc1
20 | 187 to 190 °C | NS(=O)(=O)c1ccsc1
21 | 235 to 238 °C | O=c1[nH]c2ccccc2n1C1=CCN(C2CCC(c3ccc(F)cc3)(c3ccc(F)cc3)CC2)CC1
22 | 150 to 151 °C | CCc1nc(/C=C/c2cn(-c3ccccc3)nc2OCc2ccc(OCc3nc(-c4ccc(C(=O)O)s4)oc3C)c(OC)c2)cs1
23 | 148 to 150 °C | O=C1N(Cc2ccc(-c3ccccc3Cl)o2)c2ccccc2C12COc1cc3c(cc12)OCO3 (stereo unspecified)

Row | melting point | SMILES
24 | 139 to 140 °C | Cc1cc(CNC(=O)c2sc(N3C[C@@H](C)N(Cc4ccc(F)cc4)C3=O)nc2C)no1
25 | 116 to 117 °C | COC(=O)CC1COc2cc(OCc3csc(-c4ccccc4)n3)ccc21 (stereo unspecified)
26 | 238 to 239 °C | CCCc1nc2c(N)nc3cccnc3c2n1Cc1cc(-c2ccc(F)cc2)no1
27 | 244 to 247 °C | O=S1(=O)N=CN(C2CC2)c2c1ccc(Br)c2F
28 | 190 to 201 °C | CCCC(=O)Nc1ccc(N2CCC(NC[C@H](O)COc3cccc4[nH]c(=O)[nH]c34)CC2)cc1
29 | 169 to 171 °C | Nc1cc(C(=O)CCC(=O)O)ccc1Br
30 | 110 to 113 °C | CS(=O)(=O)Cc1cccc(C(F)(F)F)c1[N+](=O)[O-]
31 | 132 to 134 °C | O=[N+]([O-])c1ccc(N=Nc2cc(OCCO)c(N(CCCO)CCCO)cc2OCCO)cc1
32 | 156 to 157 °C | CCOc1ccc(C2=NNC(=O)[C@H]3CCCC[C@@H]23)cc1OCC (relative stereo)
33 | 196 to 198 °C | COC(=O)c1cc2cc(OC)c(OC)cc2c(-c2ccncc2)c1C(=O)OC
34 | 66 to 71 °C | Cc1onc(-c2ccc(Cl)c(Cl)c2)c1-c1ccc(S(N)(=O)=O)cc1
35 | > 250 °C | Cc1nc(N)c2nc(CO)n(NC3CCCCC3)c2c1C
36 | 154 to 156 °C | CCc1cccc2c3c([nH]c12)C(CC)(CC(=O)OC)OCC3NC=O (stereo unspecified)
37 | 102 to 103 °C | CCc1ccc(SCc2c(C(C)C)nc(C(C)C)c(CO)c2-c2ccc(F)cc2)cc1
38 | > 290 °C | Cc1ccc2c(c1)N(CC(=O)c1cccs1)C(=O)C(NC(=O)Nc1cccc(C(=O)O)c1)CN2C(=O)c1cccs1 (stereo unspecified)
39 | 176 to 178 °C | CCOC(=O)c1cc(=O)c2c(C(C)C)cccc2[nH]1
40 | 252 to 253 °C | Nc1nc2c(ncn2OCC(O)CO)c(=O)[nH]1 (stereo unspecified)
41 | 104 to 106 °C | CN1CCN(c2ccccc2CC2CCN(c3ccccc3)C2=O)CC1 (stereo unspecified)
42 | 290 to 300 °C | N#Cc1c[nH]c2ccccc2c1=O
43 | 180 to 181 °C | CSC(=NC#N)NCCSc1ncccc1C(=O)c1ccccc1
44 | 223 to 225 °C | CC1(C)CCC(C)(C)c2cc3cc(-c4cc(C(=O)O)cs4)ccc3cc21
45 | 207 to 208 °C | COC(=O)c1ccc(NC(=O)c2cc(C(C)C)c(C(C)C)s2)cn1
46 | 146 to 147 °C | CN1CCC(c2ccccc2)(C(C)(C)O)CC1

Row | melting point | SMILES
47 | 135 to 136 °C | Cc1oc2c(C)c(C)c(NCc3ccc(F)cc3)c(C)c2c1-c1ccccc1
48 | 248 to 249 °C | Cc1cc(C#N)c(S(C)(=O)=O)cc1C(=O)O
49 | 218 to 220 °C | CCC(=O)N1Cc2cn[nH]c2-c2cc(N)ccc21
50 | 232 to 234 °C | Cc1cc2c(N3CCc4ccc(Cl)cc43)ncnc2cn1
51 | 118 to 119 °C | Cc1cc2c(c(Sc3ccc(Cl)cc3)n1)C(=O)N(CC1Cc3c(sc(N)c3C(=O)OC(C)(C)C)CO1)C2=O (stereo unspecified)
52 | 246 to 248 °C | Nc1nc2c(s1)CC(N1CCN(c3ccc(Br)cn3)CC1)CC2 (stereo unspecified)
53 | 106 to 107 °C | CCCCC(=O)Nc1ccc(C(=O)OC)cc1[N+](=O)[O-]
54 | 51 to 54 °C | CCCCCCCC1CC(C(=O)O)C(=O)O1 (stereo unspecified)
55 | 70.6 to 71.4 °C | CCCCCCCCCCC[C@@H](O)CC(=O)O
56 | 190 to 191 °C | O=C(N[C@H](Cc1ccc(C(F)(F)F)cc1)[C@@H](O)c1ccccc1F)c1ccc(F)c2ccccc12 (racemic)
57 | 49 °C | CCOC(=O)c1c(-c2ccc(F)cc2)c(-c2ccc(F)cc2)cn1C(C)C
58 | 92 to 95 °C | Cc1nc[nH]c1CSCCN=C(NC#N)NCCSCc1[nH]cnc1C
59 | 191 to 195 °C | O=C1NCCNc2c1cccc2[N+](=O)[O-]
60 | 118 to 120 °C | Nc1nccnc1C(=O)NCCCn1ccnc1
61 | 136 to 137 °C | COP(=O)(OC)C(c1ccc(F)cc1)(c1ccc(F)cc1)c1ccc(Cl)cc1
62 | 110 to 114 °C | Cc1ccc([C@@H]2Sc3cc(COC(c4ccccc4)(c4ccccc4)c4ccccc4)ccc3N(CCN(C)C)C(=O)[C@@H]2O)cc1
63 | 58 °C | C=C1CC(C=CC(O)CCCCC)C(O)(Cc2cccc(OCc3ccccc3)c2)C1 (stereo unspecified)
64 | 79 to 80 °C | O=CCCc1c[nH]c2ccc(F)cc12
65 | 174 to 177 °C | Nc1c(Br)cccc1CS(=O)(=O)c1ccccc1
66 | 167 to 169 °C | Cc1c(NC(=O)CC(C)(C)C)c(C)c2c(c1-c1cncnc1)OCC2c1ccc(C(C)C)cc1 (stereo unspecified)
67 | 162 to 164 °C | FC(F)C(F)(F)Sc1nc(-c2cccs2)c(-c2cccs2)[nH]1
68 | 251 to 253 °C | COc1ccccc1Nc1ncc(C(=O)O)c(=O)[nH]1
69 | 167 to 168 °C | CC(=O)Oc1ccccc1C(=O)Nc1cc(Cl)cc(Cl)c1

Row | melting point | SMILES
70 | 127 to 128 °C | COc1ccc(OCC(O)CNC(C)(C)C)c(C2=NNC(=O)CC2)c1 (stereo unspecified)
71 | 53 to 55 °C | COCC1CN=C(c2ccc(OCCCCCCCc3cc(C)no3)cc2)O1 (stereo unspecified)
72 | 128 to 130 °C | COc1ccccc1N1CCN(CCCCOc2ccc(-c3cn4ccsc4n3)cc2)CC1
73 | 170 to 172 °C | COc1ccc(C2Cc3cc(C(F)(F)F)ccc3NC(=O)C2COS(=O)(=O)c2ccc(C)cc2)cc1 (stereo unspecified)
74 | 199 to 201 °C | CC(=O)Oc1ccc2c(c1)CCC1C3CCC(=O)C3(C)CC(O)C21O (stereo unspecified)
75 | 143 to 144 °C | CCOC(=O)c1cn(-c2ccc(Cl)cc2)c(-c2ccc(Cl)cc2Cl)n1
76 | 187 to 193 °C | N#Cc1cccc(CN2C(=O)C3(COc4cc5c(cc43)CCO5)c3ccccc32)c1 (stereo unspecified)
77 | 40 °C | CCCCc1ccc(CCc2ccc(-c3ccc(F)cc3F)cc2)cc1
78 | 230 to 232 °C | Cc1cc2c(-c3cccc(C=O)c3)c(CC(=O)O)c(=O)oc2cc1Cl
79 | 135 to 140 °C | CCN1C(=O)N=NC1c1cccc(F)c1 (stereo unspecified)
80 | 155 to 156 °C | Cc1ccc(CSc2nc3cc4c(cc3[nH]2)OCCO4)nc1
81 | 208 to 210 °C | CN(C)S(=O)(=O)c1cccc2c1Sc1ccc(O)cc1N2
82 | 95 to 96 °C | CC(C)C[C@H](NC(=O)OC(C)(C)C)[C@@H](O)C[C@H](c1ccccc1)C(C)C
83 | 154 to 155 °C | N#Cc1ccc(-c2cc(C#N)cc(Cn3cncn3)c2)cc1
84 | 72 to 74 °C | CCOC(=O)C(C(=O)OCC)c1cccc2nnsc12
85 | 93 to 94 °C | COC(=O)N=C(NC(=O)Nc1ccc(Cl)c(C(=O)OC(C)C)c1)SC
86 | 182 to 183 °C | COc1ccc(Oc2ccc3c(c2)C=C(C(=O)O)C(C(F)(F)F)O3)cc1 (stereo unspecified)
87 | 150 °C | C=CCn1c2c(c3cc(OCc4ccc5ccccc5n4)ccc31)CCCC2CC(=O)O (stereo unspecified)
88 | 229 °C | COc1ccc(Cn2c(=O)c3ccc4ccccc4c3c3c4ccccc4ccc32)cc1
89 | 140 to 141 °C | CC(C)(C)NS(=O)(=O)c1ccccc1-c1ccc(NC(=O)N(Cc2cccc(C(=N)N)c2)c2ccccc2)cc1

Row | SMILES | melting point
90 | O=C(CCCl)Nc1cccc(NC(=O)Nc2ccc(N(CCCl)CCCl)cc2)c1 | 232 to 233 °C
91 | COC(=O)c1[nH]c(C)c2c1CN=C(c1ccccc1F)c1cc(Cl)ccc1-2 | 228 to 231 °C
92 | COC(=O)/C=C/c1c(SC(F)(F)F)c(C#N)nn1-c1c(Cl)cc(C(F)(F)F)cc1Cl | 90 °C
93 | COC(=O)COc1ccc(CC(C)NCC(O)c2cc3ccccc3o2)cc1C (stereo unspecified) | 115 to 130 °C
94 | COc1ccc(Cl)c(CBr)c1 | 51 to 52 °C
95 | Cc1ccc(C(=O)NCCC(=O)OCc2ccccc2)c(NC(=O)C(CCCNC(=N)N[N+](=O)[O-])NC(=O)OCc2ccccc2)c1 (stereo unspecified) | 154 to 156 °C
96 | COc1cccc(C#Cc2ncn3c2[C@@H]2CCCN2C(=O)c2c(Cl)cccc2-3)c1 | 204 to 205 °C
